Experimental data from patent US20080305157A1, “Encapsulation and separation of charged organic solutes inside catanionic vesicles” (University of Maryland Office of Technology …, priority 2007, published 2008).
Where “and” joins values, the source holds several entries; their conditions need not be identical. Equal values may be shown once. Where a name gives a salt, the structure may show the parent alone.

Tests used:
[1] = Vesicle radius by dynamic light scattering (DLS); assay type: physicochemical; settings: for Vesicle Radius after SEC by DLS CTAT-Rich V^+: V^+ vesicles with 1 mM solute; for Vesicle Radius after SEC by DLS SDBS-Rich V^−: V^− vesicles with 1 mM solute
Procedure: Vesicle sizes in solution were monitored using dynamic light scattering (DLS) on a Photocor-FC instrument. The light source was a 5 mW laser at 633 nm and the scattering angle was 90°. A logarithmic correlator was used to obtain the autocorrelation function, which was analyzed by the method of cumulants to yield a diffusion coefficient. The apparent hydrodynamic size of the vesicles was obtained from the diffusion coefficient through the Stokes-Einstein relationship. The intensity (total counts) of the signal was also recorded for each sample.
(§1) The apparent encapsulation efficiencies of the two vesicle preparations, V^+ and V^−, were also evaluated for the other solute molecules shown in FIG. 9. A solute concentration of 1 mM was used in all cases. Lucifer yellow (LY) is dianionic in water and Sulforhodamine 101 (SR101) is monanionic. […] Doxorubicin hydrochloride (Dox) is a cationic drug with a pKa of ˜7.619 that has been used to treat a variety of cancers. […] In each case, vesicles were prepared using aqueous solutions of the solute at a concentration of 1 mM. The solute/CTAT/SDBS mixtures were stirred for 30-60 min, or overnight, and the resulting vesicle solutions were allowed to equilibrate in the dark at room temperature for at least 48 h. Thereafter, the samples were passed through a 25 mm syringe filter (0.45 μm mesh) to remove any impurities. Dynamic light scattering was conducted to confirm vesicle formation and to measure the average vesicle size.
A low solute concentration, e.g., 1 mM, was used in the experiments to ensure the stability of our vesicle formulations. […] Even at a concentration of 1 mM, some solutes may have a large effect on vesicle morphology. To study these aspects in some detail, dynamic light scattering (DLS) and small angle neutron scattering (SANS) were used. DLS was performed on purified vesicles obtained from the SEC column (after removing all the free solute); the sizes of solute-containing vesicles were compared with the sizes of neat vesicles (no solute). DLS gave radii of 74 nm for neat V^+ vesicles and 70 nm for neat V^− vesicles. Passing these neat vesicles through an SEC column changed their sizes slightly and the new radii were 81 nm for V^+ and 98 nm for V^− vesicles. […] However, while 1 mM of the anionic solute Lucifer yellow (LY) had no effect on V^− vesicles, it induced a 2.5 fold increase in the radii of V^+ vesicles.

[2] = Apparent encapsulation efficiency (ε) of solutes in vesicles by SEC and UV-vis; assay type: physicochemical; settings: 1 wt% surfactant, 1 mM solute; for ε (Apparent Encapsulation Efficiency) SDBS-Rich V^−: V^− vesicles 3:7 w/w CTAT:SDBS; for ε (Apparent Encapsulation Efficiency) CTAT-Rich V^+: V^+ vesicles 7:3 w/w CTAT:SDBS
Procedure: For the determination of encapsulation efficiencies, vesicles were prepared using aqueous solutions containing 1.0 mM carboxyfluorescein (CF) dye. The formation of CTAT-rich vesicles (7:3 CTAT to SDBS w/w) appeared to be inhibited at CF concentrations of 5 mM or greater. High concentrations of CF (and similarly, other solutes) tended to disrupt the vesicles and lead to precipitation over time. Vesicle stability appeared to be unaffected when the solute concentration is kept below 5 mM, and at these concentrations solute encapsulation does occur. For CF, a pH ˜9 was required in order to fully dissolve the dye, and the stock solutions were adjusted accordingly. The CF/CTAT/SDBS solutions were stirred for 15-30 min and the resulting vesicle solutions were allowed to equilibrate in the dark at room temperature for at least 48 h. Dynamic light scattering (DLS) was then used to confirm vesicle formation. SDBS-rich vesicles (e.g., 3:7 CTAT to SDBS w/w) could be prepared with higher CF concentrations (up to ca. 100 mM); however CF encapsulation in these vesicles was reduced relative to that of CTAT-rich vesicles and in many cases CF encapsulation by SDBS-rich vesicles (i.e., the formation of distinct bands in the chromatography column, see below) was not achieved.
as §1
To measure the apparent encapsulation efficiency ε, size exclusion chromatography (SEC) was used to separate the free solute from that encapsulated by the vesicles. A 2×25 cm column packed with Sephadex G50 resin (medium mesh, Amersham Biosciences) or a 1.3 cm×21 cm SEC column packed with Sephadex G50 resin (medium mesh, from Amersham Biosciences) was used. An aliquot of the vesicle-solute sample was run through the SEC column.
During elution, vesicle solutions divided into bands that were visible with the naked eye or by UV lamp, e.g., in the case of CF dye containing vesicles, two clear bands, the leading band containing the dye-bearing vesicles and the second band containing the free dye. During elution, fractions were collected and analyzed, and a series of such fractions for a typical experiment is shown in FIG. 6 (the solute in FIG. 6 is CF). The band containing the vesicles was collected for further studies of vesicle leakage, as described below. Dynamic light scattering was used to determine which of the eluted fractions contained vesicles, and the vesicles were consistently found to elute at 5.5 ml, total elution volume.
The amount of solute in each fraction was determined using UV-vis spectroscopy (Hitachi U-3010 Spectrometer). The encapsulation efficiency (ε) value is defined as the amount of encapsulated solute relative to the total initial amount of solute:
V designates volume, A designates absorbance, i denotes initial values taken from the original preparation, and f denotes values taken from the fractions eluted from the SEC column shown by dynamic light scattering to contain vesicles. Thus, the value of ε gives percentage of dye that is captured by the vesicles during their preparation. […]

[3] = Long-term CF release from vesicles by self-quenching fluorescence, R(t); assay type: physicochemical
Procedure: The self-quenching behavior of carboxyfluorescein (CF) was used to monitor dye efflux from vesicles. CF is a widely used probe for vesicle encapsulation due to its ability to undergo efficient self-quenching of fluorescence at millimolar concentrations. For example, when 60 mM CF is entrapped in vesicles, its fluorescence intensity is reduced by 60-80%, but as the dye is released from the vesicle, and thus diluted by the surrounding buffer, its fluorescence intensity increases.
Samples were checked on a specific day by placing a fixed aliquot (1.5 mL) into a 1 cm cuvette and monitoring its emission at 520 nm while exciting at 490 nm using a Spex Fluorolog-3 spectrometer. The intensity was monitored for several minutes to establish the baseline fluorescence intensity, which contains a contribution from both free and encapsulated dyes. After the baseline was established, 100 uL of 10% (w/w) aqueous Triton X-100 was added to disrupt the vesicles. Vesicle disruption results in the release of all dye molecules into solution and a concomitant increase in fluorescence. For these experiments, a substantial volume of sample was prepared on the first day and run on the SEC column to remove free dye. […] The traces show the emission intensity before and after the addition of Triton X-100, a nonionic detergent that disrupts both lipid and surfactant vesicles. […] As expected, the largest jump occurs for the freshly prepared vesicle solution where all the dye is encapsulated in the vesicles. We compare the magnitude of the jump on Day x with the highest jump (Day 0) and thereby obtain the fraction of the dye released on day x, R(t=x), the calculation of which is described below. […]
To monitor long-term leakage rates, the fraction of dye released as a function of time, R(t), was calculated for a given day. This quantity measures the fraction of encapsulation on Day x relative to the initial value on Day 0:
where F(initial) and F(final) are the fluorescence intensities before and after adding the Triton X-100. […]

[4] = assay type: physicochemical
Procedure: A more general procedure based on SEC that can be applied to a wide range of solutes, including non-self-quenching and non-fluorescent ones was also used. The initial vesicle-solute mixture was purified using SEC (as described above) to remove the free, unencapsulated solute. The sample was then checked for release of solute from the vesicles over the course of several weeks. For this purpose, small-scale separations using quick-spin columns pre-packed with Sephadex G50 (fine) were performed (column from Roche, additional beads for repacking the columns from Sigma). On a specific day, a 100 μL aliquot was run through a quick-spin column by centrifugation (3000 rpm, 15 s), and the eluted fraction was evaluated using UV-vis spectroscopy. Any solute that had been released from the vesicles was retained by the quick-spin column. Therefore, the amount of solute eluted by the column corresponded to the solute still encapsulated by the vesicles. The UV-vis absorption value for the eluted sample was divided by the corresponding value obtained on day zero (immediately after SEC) to yield a fraction of solute that remains encapsulated in the vesicles. This method directly yielded the apparent encapsulation, ε, as a function of time. […]

[5] = Dye adsorption: dye added to preformed vesicles, then SEC; assay type: physicochemical
[6] = Apparent encapsulation efficiency (ε) of solutes in vesicles by SEC and UV-vis; assay type: physicochemical; settings: inner water pool only
[7] = Separation of oppositely charged solute mixtures with catanionic vesicles by SEC; assay type: physicochemical; settings: for Dye carried through SEC column within the V^+ vesicle band / Dye in the V^− vesicle band emerging from SEC column: equimolar CF and R6G, total dye 0.5 mM; for Dye carried through SEC column within the V^+ vesicle band: V^+ vesicles; for Dye in the V^− vesicle band emerging from SEC column: V^− vesicles; for Separation of LY and Dox by catanionic vesicles in SEC: total compound concentration 1 mM
Procedure: Catanionic vesicles were prepared with equimolar mixtures of two solutes, the cationic organic dye rhodamine 6G (R6G) and the anionic dye carboxyfluorescein (CF). The total solute concentration was maintained at either 0.5 or 1.0 mM, and experiments were done with both positively charged vesicles (V^+) (excess of cationic CTAT) and negatively charged vesicles (V^−) (excess of anionic SDBS) formed from cetyltrimethylammonium tosylate (CTAT) and sodium dodecylbenzenesulfonate (SDBS).
Experiments with these solute mixtures were performed and analyzed by performing size exclusion chromatography on the sample and measuring the dye concentration of each fraction to obtain an apparent encapsulation value, ε, for each dye (see below). The dye concentration in each fraction was determined by UV-vis spectroscopy. To account for the overlapping of the dye spectra, we subtracted a scaled spectrum of pure R6G from the total spectrum in order to find the peak absorbance of CF.

[8] = cited from earlier work

Compound	Effect of solute on V^+ vesicle radii ([1]; 1 mM solute)	Effect of solute on V^− vesicle radii ([1]; 1 mM solute)	Vesicle Radius after SEC by DLS CTAT-Rich V^+ [1] [nm]	Vesicle Radius after SEC by DLS SDBS-Rich V^− [1] [nm]	ε (Apparent Encapsulation Efficiency) SDBS-Rich V^− [2]	Release rate slower than from EYPC vesicles ([3]; CF from V^+ vesicles vs EYPC vesicles)	Period over which CF dye is released ([3]; EYPC vesicles)	Release of CF ([3]; V^+ vesicles, after 27 days)	Half life in the vesicles [4] [days]	Retention of solute relative to liposomes ([4]; catanionic vesicles vs EYPC liposomes)	Electrostatic adsorption contribution to overall apparent encapsulation efficiency ε ([5]; CF added to pre-formed V^+ vesicles vs vesicles formed with CF)	Actual encapsulation efficiency for dye in the V^+ water pool [6]	Dye carried through SEC column within the V^+ vesicle band [7]	Dye in the V^− vesicle band emerging from SEC column [7]	ε (Apparent Encapsulation Efficiency) CTAT-Rich V^+ [2] [%]	ε (Apparent Encapsulation Efficiency) SDBS-Rich V^− ([2]; hydrochloride) [%]	Separation of LY and Dox by catanionic vesicles in SEC [7]	ε when dye added to pre-made vesicles, as share of Table 1 value ([5]; R6G added to pre-made V^− vesicles)	Increase in the radii of V^+ vesicles ([1]; 1 mM solute, vs neat vesicles) [fold]	pKa [8]
5(6)-carboxyfluorescein [CF]	essentially unchanged	essentially unchanged	87 ± 5	91 ± 8	1.0 ± 0.4%	at least 40 times	about 5 days	approximately 20%	114	40-60 times	about 75%	ca. 5%	31%	negligible						
COc1cccc2c1C(=O)c1c(O)c3c(c(O)c1C2=O)C[C@@](O)(C(=O)CO)C[C@@H]3O[C@H]1C[C@H](N)[C@H](O)[C@H](C)O1 [Dox, doxorubicin hydrochloride]			143 ± 32	93 ± 4											0	55	Very efficient separation			~7.619

Further lines, with some results ahead:

Effect of solute on V^+ vesicle radii ([1]; 1 mM solute)	Effect of solute on V^− vesicle radii ([1]; 1 mM solute)	Vesicle Radius after SEC by DLS CTAT-Rich V^+ [1] [nm]	Vesicle Radius after SEC by DLS SDBS-Rich V^− [1] [nm]	ε (Apparent Encapsulation Efficiency) SDBS-Rich V^− [2]	Release rate slower than from EYPC vesicles ([3]; CF from V^+ vesicles vs EYPC vesicles)	Period over which CF dye is released ([3]; EYPC vesicles)	Release of CF ([3]; V^+ vesicles, after 27 days)	Half life in the vesicles [4] [days]	Retention of solute relative to liposomes ([4]; catanionic vesicles vs EYPC liposomes)	Electrostatic adsorption contribution to overall apparent encapsulation efficiency ε ([5]; CF added to pre-formed V^+ vesicles vs vesicles formed with CF)	Actual encapsulation efficiency for dye in the V^+ water pool [6]	Dye carried through SEC column within the V^+ vesicle band [7]	Dye in the V^− vesicle band emerging from SEC column [7]	ε (Apparent Encapsulation Efficiency) CTAT-Rich V^+ [2] [%]	ε (Apparent Encapsulation Efficiency) SDBS-Rich V^− ([2]; hydrochloride) [%]	Separation of LY and Dox by catanionic vesicles in SEC [7]	ε when dye added to pre-made vesicles, as share of Table 1 value ([5]; R6G added to pre-made V^− vesicles)	Increase in the radii of V^+ vesicles ([1]; 1 mM solute, vs neat vesicles) [fold]	Compound	pKa [8]
		156 ± 24	109 ± 16	72% and 72 ± 3%								no detectable	88%	0.07 ± 0.1			ca. 85%		CCN=c1cc2oc3cc(NCC)c(C)cc3c(-c3ccccc3C(=O)OCC)c-2cc1C.Cl [R6G, rhodamine 6G]	
		122 ± 38	84 ± 7	8.2%										32.8					O=S(=O)([O-])c1cc(S(=O)(=O)O)ccc1C1=c2cc3c4c(c2Oc2c1cc1c5c2CCCN5CCC1)CCC[N+]=4CCC3 [SR 101, sulforhodamine 101]	
	no effect	208 ± 18	96 ± 3	4%										40 ± 20		Very efficient separation		2.5	Lucifer yellow [LY]	
